Reference: the NIST ThermoML archive (doi:10.1021/acs.jced.8b00202)

Conditions: Liquid, Frequency=8 MHz, Dual path-length method

CC(C)C [2-methylpropane]
Conditions	speed of sound [m/s]
199.99 K, 409.39 kPa	1393.6
199.99 K, 599.71 kPa	1394.9
199.99 K, 1103.6 kPa	1398.1
199.99 K, 2104.3 kPa	1404.5
199.99 K, 3104.9 kPa	1410.8
199.99 K, 4105.7 kPa	1417.1
199.99 K, 5106.3 kPa	1423.3
199.99 K, 6107 kPa	1429.4
199.99 K, 7107.8 kPa	1435.5
199.99 K, 8108.5 kPa	1441.5
199.99 K, 9109.1 kPa	1447.5
199.99 K, 10110 kPa	1453.4
199.99 K, 12612 kPa	1467.8
199.99 K, 15113 kPa	1482
199.99 K, 17615 kPa	1495.8
199.99 K, 20117 kPa	1509.3
199.99 K, 25120 kPa	1535.6
199.99 K, 30124 kPa	1560.8
199.99 K, 35128 kPa	1585.2
199.99 K, 40131 kPa	1608.7
199.99 K, 45134 kPa	1631.5
199.99 K, 50138 kPa	1653.5
199.99 K, 60145 kPa	1695.8
199.99 K, 70152 kPa	1735.8
199.99 K, 80158 kPa	1773.8
200 K, 90166 kPa	1810.1
200 K, 100173 kPa	1844.9
220 K, 1103.2 kPa	1276.9
220 K, 2103.8 kPa	1284.3
220 K, 3102.9 kPa	1291.5
220 K, 3104.4 kPa	1291.5
220 K, 4105.1 kPa	1298.6
220 K, 5105.2 kPa	1305.7
220 K, 6106 kPa	1312.7
220 K, 7106.6 kPa	1319.5
220 K, 8107.3 kPa	1326.3
220 K, 9108 kPa	1333
220 K, 10109 kPa	1339.7
220 K, 10110 kPa	1339.7
220 K, 12610 kPa	1356
220 K, 15112 kPa	1371.8
220 K, 17614 kPa	1387.2
220 K, 20116 kPa	1402.2
220 K, 20117 kPa	1402.2
220 K, 25119 kPa	1431.2
220 K, 30123 kPa	1459
220 K, 30124 kPa	1459
220 K, 35126 kPa	1485.6
220 K, 40130 kPa	1511.2
220 K, 40131 kPa	1511.2
220 K, 45134 kPa	1535.8
220 K, 50137 kPa	1559.7
220 K, 60144 kPa	1605.2
220 K, 70151 kPa	1648
220 K, 80158 kPa	1688.5
220 K, 90165 kPa	1727
220 K, 100172 kPa	1763.8
240 K, 402.14 kPa	1153
240 K, 402.77 kPa	1153
240 K, 602.82 kPa	1154.8
240 K, 1103.6 kPa	1159
240 K, 2103.9 kPa	1167.5
240 K, 2104.3 kPa	1167.5
240 K, 3104.9 kPa	1175.8
240 K, 4105.7 kPa	1184
240 K, 5106.3 kPa	1192.1
240 K, 6107.2 kPa	1200
240 K, 7108 kPa	1207.8
240 K, 8108.1 kPa	1215.5
240 K, 8109.3 kPa	1215.5
240 K, 9110.1 kPa	1223.1
240 K, 10111 kPa	1230.6
240 K, 12613 kPa	1248.8
240 K, 15113 kPa	1266.5
240 K, 15114 kPa	1266.5
240 K, 17616 kPa	1283.7
240 K, 20118 kPa	1300.3
240 K, 25121 kPa	1332.3
240 K, 30124 kPa	1362.6
240 K, 30125 kPa	1362.6
240 K, 35128 kPa	1391.6
240 K, 40132 kPa	1419.3
240 K, 45135 kPa	1445.9
240 K, 50139 kPa	1471.5
240 K, 60146 kPa	1520.1
240 K, 70153 kPa	1565.7
240 K, 80160 kPa	1608.6
240 K, 90167 kPa	1649.3
240 K, 100174 kPa	1688
259.99 K, 8108.1 kPa	1108.7
259.99 K, 15113 kPa	1166
259.99 K, 30123 kPa	1271.7
260 K, 402.73 kPa	1036.8
260 K, 405.47 kPa	1036.7
260 K, 607.87 kPa	1038.8
260 K, 1106.4 kPa	1043.8
260 K, 2104 kPa	1053.6
260 K, 2107.1 kPa	1053.6
260 K, 3107.8 kPa	1063.2
260 K, 4108.4 kPa	1072.7
260 K, 5109.1 kPa	1081.9
260 K, 6109.7 kPa	1091
260 K, 7111 kPa	1099.9
260 K, 8111.7 kPa	1108.6
260 K, 9112.4 kPa	1117.2
260 K, 10113 kPa	1125.7
260 K, 12615 kPa	1146.2
260 K, 15116 kPa	1166
260 K, 17618 kPa	1185
260 K, 20120 kPa	1203.5
260 K, 25123 kPa	1238.6
260 K, 30127 kPa	1271.7
260 K, 35130 kPa	1303.1
260 K, 40134 kPa	1333
260 K, 45137 kPa	1361.5
260 K, 50140 kPa	1388.9
260 K, 60147 kPa	1440.6
260 K, 70154 kPa	1488.7
260 K, 80161 kPa	1533.9
260 K, 90168 kPa	1576.6
260 K, 100175 kPa	1617.2
280 K, 402.43 kPa	921.86
280 K, 602.22 kPa	924.25
280 K, 606.25 kPa	924.3
280 K, 1103.2 kPa	930.19
280 K, 2103.9 kPa	941.79
280 K, 3104.4 kPa	953.08
280 K, 4105.1 kPa	964.08
280 K, 5105.7 kPa	974.8
280 K, 6106.3 kPa	985.26
280 K, 7107 kPa	995.5
280 K, 8107.9 kPa	1005.5
280 K, 9108.6 kPa	1015.3
280 K, 10109 kPa	1024.9
280 K, 12611 kPa	1048
280 K, 15113 kPa	1070.1
280 K, 17614 kPa	1091.3
280 K, 20116 kPa	1111.6
280 K, 25119 kPa	1150.1
280 K, 30123 kPa	1186.1
280 K, 35126 kPa	1220
280 K, 40130 kPa	1252.1
280 K, 45133 kPa	1282.6
280 K, 50137 kPa	1311.8
280 K, 60144 kPa	1366.4
280 K, 70151 kPa	1417.1
280 K, 80158 kPa	1464.6
280 K, 90164 kPa	1509.1
280 K, 100171 kPa	1551.2
299.99 K, 3104.6 kPa	844.54
300 K, 601.97 kPa	809.82
300 K, 1103.1 kPa	817.03
300 K, 1103.4 kPa	817.08
300 K, 4105.3 kPa	857.55
300 K, 5106 kPa	870.14
300 K, 5106.3 kPa	870.12
300 K, 6106.5 kPa	882.34
300 K, 7107.5 kPa	894.17
300 K, 8108.1 kPa	905.68
300 K, 9108.7 kPa	916.91
300 K, 10109 kPa	927.83
300 K, 12611 kPa	954.01
300 K, 15113 kPa	978.78
300 K, 17614 kPa	1002.3
300 K, 20116 kPa	1024.8
300 K, 25120 kPa	1066.9
300 K, 30123 kPa	1105.9
300 K, 35127 kPa	1142.4
300 K, 40131 kPa	1176.7
300 K, 45134 kPa	1209.2
